Our source for the EC50 values is patent publication US10138255B2, “Piperazine derivatives as HIV protease inhibitors” (Merck Sharp & Dohme Corp., priority 2014, dated 2018).

SMILES strings stand for the structures. pEC50: −log10 of the molar value.

One assay has as its system HIV-1 (H9IIIB strain). Briefly: Cell-Based HIV Infection Assay Using a Reporter (MT4-GFP cells). The conditions noted are these: Human immunodeficiency virus 1, inflection point (IP) of viral growth inhibition; MT4-GFP cells infected with HIV-1 H9IIIB; 50% normal human serum; mean of at least two independent experiments; read-out: Cell Based IP (50% NHS). In a few lines: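 MT4-GFP cells (HIV LTR-driven GFP) bulk-infected with HIV-1 H9IIIB at low MOI for 24 h, washed, then exposed to compounds in RPMI plus 50% normal human serum, 0.4% DMSO. Infected cells counted at 24 and 48 h; R0 = 48 h/24 h ratio, inhibition normalised to DMSO and triple-drug control; IP from 4-parameter fit.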
With `COC(=O)N[C@H](C(=O)Nc1cccc(F)c1CC[C@H]1CN[C@@H]2CCCS(=O)(=O)N1C2)[C@@H](c1ccc(F)cc1)C1C[C@@H](C)O[C@H](C)C1` (stereo partly drawn) [Example 112, methyl [(1S,2R)-2-[(2R,6R)-2,6-dimethyltetrahydro-2H-pyran-4-yl]-1-[(2-{2-[(6R,9S)-2,2-dioxido-2-thia-1,7-diazabicyclo[4.3.1]dec-9-yl]ethyl}-3-fluorophenyl)carbamoyl]-2-(4-fluorophenyl)ethyl]carbamate], the pEC50 is 7.38.
Consider `C[C@@H]1CC([C@H](c2ccc(F)cc2)[C@H](N)C(=O)Nc2cccc(F)c2CC[C@H]2CN[C@@H]3CCCS(=O)(=O)N2C3)C[C@@H](C)O1` (stereo partly drawn) [Example 113, (βR)-β-[(2R,6R)-2,6-dimethyltetrahydro-2H-pyran-4-yl]-N-(2-{2-[(6R,9S)-2,2-dioxido-2-thia-1,7-diazabicyclo[4.3.1]dec-9-yl]ethyl}-3-fluorophenyl)-4-fluoro-L-phenylalaninamide], for which the pEC50 was 7.66.
Take `COC(=O)N[C@H](C(=O)Nc1cccc(F)c1CCC1CNC2CCCS(=O)(=O)N1C2)[C@@H](c1ccc(Cl)cc1)c1cncc(C(C)(F)F)c1` (stereo partly drawn) [Example 114, methyl [(1S,2S)-2-(4-chlorophenyl)-2-[5-(1,1-difluoroethyl)pyridin-3-yl]-1-({2-[2-(2,2-dioxido-2-thia-1,7-diazabicyclo[4.3.1]dec-9-yl)ethyl]-3-fluorophenyl}carbamoyl)ethyl]carbamate]: the pEC50 is 7.66.
Take `COC(=O)N[C@H](C(=O)Nc1cccc(F)c1CCC1CNC2CCCS(=O)(=O)N1C2)[C@@H](c1ccc(Cl)cc1)c1ccc(C(C)(F)F)nc1` (stereo partly drawn) [Example 116, methyl [(1S,2S)-2-(4-chlorophenyl)-2-[6-(1,1-difluoroethyl)pyridin-3-yl]-1-({2-[2-(2,2-dioxido-2-thia-1,7-diazabicyclo[4.3.1]dec-9-yl)ethyl]-3-fluorophenyl}carbamoyl)ethyl]carbamate]: the pEC50 is 7.74.
For the compound `COC(=O)N[C@H](C(=O)Nc1cccc(F)c1CC[C@H]1CN[C@@H]2CCCS(=O)(=O)N1C2)[C@@H](c1ccc(F)cc1)[C@H]1CC[C@H](OC)CC1` [Example 117, methyl [(1S)-2-[(2-{2-[(6R,9S)-2,2-dioxido-2-thia-1,7-diazabicyclo[4.3.1]dec-9-yl]ethyl}-3-fluorophenyl)amino]-1-{(R)-(4-fluorophenyl)[(1r,4R)-4-methoxycyclohexyl]methyl}-2-oxoethyl]carbamate], the pEC50 is 8.30.
On the same count and under the same terms, to `CO[C@H]1CC[C@H]([C@H](c2ccc(F)cc2)[C@H](N)C(=O)Nc2cccc(F)c2CC[C@H]2CN[C@@H]3CCCS(=O)(=O)N2C3)CC1` [Example 118, (βR)-N-(2-{2-[(6R,9S)-2,2-dioxido-2-thia-1,7-diazabicyclo[4.3.1]dec-9-yl]ethyl}-3-fluorophenyl)-4-fluoro-β-[(1r,4R)-4-methoxycyclohexyl]-L-phenylalaninamide] belongs 8.12.
For `C[C@@H]1C[C@H]([C@H](c2ccc(Cl)cc2)[C@H](N)C(=O)Nc2cccc(F)c2CC[C@H]2CN[C@@H]3CCCS(=O)(=O)N2C3)C[C@H](C)O1` [Example 121, (βR)-4-chloro-β-[(2R,4r,6S)-2,6-dimethyltetrahydro-2H-pyran-4-yl]-N-(2-{2-[(6R,9S)-2,2-dioxido-2-thia-1,7-diazabicyclo[4.3.1]dec-9-yl]ethyl}-3-fluorophenyl)-L-phenylalaninamide], the pEC50 is 8.24.
Consider `COC(=O)N[C@H](C(=O)Nc1cccc(F)c1CCC1CNC2CCCS(=O)(=O)N1C2)[C@@H](c1ccc(Cl)cc1)c1ccnc(OC(C)C)c1` (stereo partly drawn) [Example 122, methyl {(1S,2S)-2-(4-chlorophenyl)-1-({2-[2-(2,2-dioxido-2-thia-1,7-diazabicyclo[4.3.1]dec-9-yl)ethyl]-3-fluorophenyl}carbamoyl)-2-[2-(1-methylethoxy)pyridin-4-yl]ethyl}carbamate], for which the pEC50 is 8.17.
Still for that read-out and setting: to `COC(=O)N[C@H](C(=O)Nc1cccc(F)c1CC[C@H]1CN[C@@H]2CCCS(=O)(=O)N1C2)[C@]1(c2ccc(Cl)cc2)CC[C@H](OC)CC1` [Example 125, methyl {(1S)-1-[cis-1-(4-chlorophenyl)-4-methoxycyclohexyl]-2-[(2-{2-[(6R,9S)-2,2-dioxido-2-thia-1,7-diazabicyclo[4.3.1]dec-9-yl]ethyl}-3-fluorophenyl)amino]-2-oxoethyl}carbamate] belongs 7.15; to `CO[C@H]1CC[C@@](c2ccc(Cl)cc2)([C@H](N)C(=O)Nc2cccc(F)c2CC[C@H]2CN[C@@H]3CCCS(=O)(=O)N2C3)CC1` [Example 126, (2S)-2-amino-2-[cis-1-(4-chlorophenyl)-4-methoxycyclohexyl]-N-(2-{2-[(6R,9S)-2,2-dioxido-2-thia-1,7-diazabicyclo[4.3.1]dec-9-yl]ethyl}-3-fluorophenyl)ethanamide], 6.21.
Same read-out and setting: next, `CC1(C)C[C@@H]([C@H](c2ccc(Cl)cc2)[C@H](N)C(=O)N[C@H]2CCCC[C@@H]2CC[C@H]2CN[C@@H]3CCCS(=O)(=O)N2C3)CCO1` [Example 129, (βR)-4-chloro-β-[(4S)-2,2-dimethyltetrahydro-2H-pyran-4-yl]-N-[(1S,2R)-2-{2-[(6R,9S)-2,2-dioxido-2-thia-1,7-diazabicyclo[4.3.1]dec-9-yl]ethyl}cyclohexyl]-L-phenylalaninamide]: 7.25; `COC(=O)N[C@H](C(=O)N[C@H]1CCCC[C@@H]1CC[C@H]1CN[C@@H]2CCCS(=O)(=O)N1C2)[C@@H](c1ccc(Cl)cc1)[C@@H]1CCOC(C)(C)C1` [Example 131, methyl [(1S,2R)-2-(4-chlorophenyl)-2-[(4R)-2,2-dimethyltetrahydro-2H-pyran-4-yl]-1-{[(1S,2R)-2-{2-[(6R,9S)-2,2-dioxido-2-thia-1,7-diazabicyclo[4.3.1]dec-9-yl]ethyl}cyclohexyl]carbamoyl}ethyl]carbamate]: 7.62; `N[C@H](C(=O)Nc1cccc(F)c1CC[C@H]1CN[C@@H]2CCCS(=O)(=O)N1C2)[C@@H](c1ccc(F)cc1)c1cnc(C(F)(F)F)nc1` [Example 132, (βS)-N-(2-{2-[(6R,9S)-2,2-dioxido-2-thia-1,7-diazabicyclo[4.3.1]dec-9-yl]ethyl)-3-fluorophenyl)-4-fluoro-β-[2-(trifluoromethyl)pyrimidin-5-yl]-L-phenylalaninamide]: 7.82.
Still for that read-out and setting: to `COC(=O)N[C@@H](C(=O)N[C@H]1CCC[C@@H]1CC[C@H]1CN[C@@H]2CCCS(=O)(=O)N1C2)[C@@H](c1ccc(Cl)cc1)C1CCN(C(=O)OCc2ccccc2)CC1` [Example 137, benzyl 4-{(1R,2R)-1-(4-chlorophenyl)-3-{[(1S,2R)-2-{2-[(6R,9S)-2,2-dioxido-2-thia-1,7-diazabicyclo[4.3.1]dec-9-yl]ethyl}cyclopentyl]amino}-2-[(methoxycarbonyl)amino]-3-oxopropyl}piperidine-1-carboxylate] belongs 5.89.

The same assay, now with this note: inflection point (IP) of viral growth inhibition; MT4-GFP cells infected with HIV-1 H9IIIB; 50% normal human serum; mean of at least two independent experiments; read-out: Cell Based IP (50% NHS).
As to `COC(=O)N[C@H](C(=O)Nc1cccc(F)c1CC[C@H]1CN[C@@H]2CCCS(=O)(=O)N1C2)[C@@H](c1ccc(Cl)cc1)C1C[C@@H](C)O[C@@H](C)C1` (stereo partly drawn) [Example 120, methyl {(1S,2R)-2-(4-chlorophenyl)-2-[(2R,4r,6S)-2,6-dimethyltetrahydro-2H-pyran-4-yl]-1-[(2-{2-[(6R,9S)-2,2-dioxido-2-thia-1,7-diazabicyclo[4.3.1]dec-9-yl]ethyl}-3-fluorophenyl)carbamoyl]ethyl}carbamate], the EC50 amounted to 6.2 nM.
